Measurements: patent US20080039629A1, “Benzothniazole compositions and their use as ubiquition ligation inhibitors” (RIGEL PHARMACEUTICALS, INC., priority 2003, published 2008)

Target: T1, E1 and His-E2 Ubch10 (Homo sapiens, UniProt P22314)
T1 construct: host or cells: E. coli (His-Ubch10); Sf9 insect cells (E1)
T1 sequence (P22314 1-1058): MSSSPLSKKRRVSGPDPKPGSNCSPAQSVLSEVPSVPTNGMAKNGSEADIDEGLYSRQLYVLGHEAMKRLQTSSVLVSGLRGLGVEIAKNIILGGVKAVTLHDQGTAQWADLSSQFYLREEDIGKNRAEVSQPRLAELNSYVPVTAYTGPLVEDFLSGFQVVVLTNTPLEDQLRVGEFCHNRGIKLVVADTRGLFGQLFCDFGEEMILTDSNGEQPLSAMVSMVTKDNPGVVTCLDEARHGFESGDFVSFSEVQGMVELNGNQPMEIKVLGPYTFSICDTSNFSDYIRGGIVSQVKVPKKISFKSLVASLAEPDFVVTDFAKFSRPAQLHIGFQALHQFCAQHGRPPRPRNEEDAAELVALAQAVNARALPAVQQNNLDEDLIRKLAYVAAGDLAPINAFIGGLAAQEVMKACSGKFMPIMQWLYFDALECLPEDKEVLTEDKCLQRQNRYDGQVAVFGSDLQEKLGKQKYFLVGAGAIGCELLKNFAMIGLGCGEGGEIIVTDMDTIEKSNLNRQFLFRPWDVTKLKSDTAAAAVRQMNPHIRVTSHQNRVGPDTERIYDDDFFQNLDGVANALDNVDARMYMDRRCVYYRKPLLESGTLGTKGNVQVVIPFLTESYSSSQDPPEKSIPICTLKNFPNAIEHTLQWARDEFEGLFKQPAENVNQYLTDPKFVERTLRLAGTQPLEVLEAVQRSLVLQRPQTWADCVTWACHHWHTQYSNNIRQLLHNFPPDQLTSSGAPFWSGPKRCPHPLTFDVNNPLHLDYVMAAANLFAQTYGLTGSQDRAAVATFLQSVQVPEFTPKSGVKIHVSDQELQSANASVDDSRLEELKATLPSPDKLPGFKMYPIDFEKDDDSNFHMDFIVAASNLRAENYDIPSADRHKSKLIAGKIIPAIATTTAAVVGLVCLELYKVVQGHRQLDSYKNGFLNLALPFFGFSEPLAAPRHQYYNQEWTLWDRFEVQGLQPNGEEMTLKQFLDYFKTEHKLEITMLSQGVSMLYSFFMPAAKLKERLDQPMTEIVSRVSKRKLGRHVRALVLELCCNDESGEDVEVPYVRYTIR
Assay: E1 to E2 transfer assay, His-E2 Ubch10, 1.0 μM ATP (low ATP)
Format: biochemical
Conditions: Table 5, ATP inhibition properties; inhibition measured using IC50 values
Procedure, shortened: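 His-Ubch10 (20 ng/well), E1 (10 ng/well) and Flag-ubiquitin (100 ng) reacted 1 h at room temperature on nickel plates in 62.5 mM Tris pH 7.5, 0.75 mM DTT, 1.0 μM ATP with inhibitor. E2-ubiquitin complex detected by anti-Flag/HRP luminescence; IC50 determined.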

| Compound | UBC10 |
| --- | --- |
| COc1ccc2nc(NC(=O)c3ccc(C)cc3C)sc2c1 [Compound 101, N-(6-methoxybenzo[d]thiazol-2-yl)-2,4-dimethyibenzamide] | ++ (++ indicates inhibition at 50 μM or or less) |
| O=C(Nc1nc2ccccc2s1)c1ccco1 [Compound 88, N-(benzo[d]thiazol-2-yl)furan-2-carboxamide] | −− (−− indicates marginal or no inhibition detected with this assay) |
| COc1ccc2nc(NC(=O)c3ccc(C(C)=O)cc3)sc2c1 [Compound 28, 4-acetyl-N-(6-methoxybenzo[d]thiazol-2-yl)benzamide] | ++ (++ indicates inhibition at 50 μM or or less) |
| COc1ccc2nc(NC(=O)c3ccc(C)cc3)sc2n1 [Compound 152, N-(5-methoxythiazolo[5,4-b]pyridin-2-yl)-4-methylbenzamide] | ++ (++ indicates inhibition at 50 μM or or less) |
| COc1ccc2nc(NC(=O)c3cccc(C)c3)sc2c1 [Compound 56, N-(6-methoxybenzo[d]thiazol-2-yl)-3-methylbenzamide] | ++ (++ indicates inhibition at 50 μM or or less) |
| COc1ccc2nc(NC(=O)c3ccc([N+](=O)[O-])cc3Cl)sc2c1 [Compound 18, 2-chloro-N-(6-methoxybenzo[d]thiazol-2-yl)-4-nitrobenzamide] | −− (−− indicates marginal or no inhibition detected with this assay) |
| CCOc1ccc2nc(NC(=O)c3ccc(C)c(C)c3)sc2c1 [Compound 93, N-(6-ethoxybenzo[d]thiazol-2-yl)-3,4-dimethylbenzamide] | −− (−− indicates marginal or no inhibition detected with this assay) |
| COc1ccc2nc(NC(=O)c3ccc(F)cc3)sc2c1 [Compound 57, 4-fluoro-N-(6-methoxybenzo[d]thiazol-2-yl)benzamide] | ++ (++ indicates inhibition at 50 μM or or less) |
| C=C(C)C(=O)Nc1ccc(C(=O)Nc2nc3ccc(OC)cc3s2)cc1 [Compound 15, 4-methacrylamido-N-(6-methoxybenzo[d]thiazol-2-yl)benzamide] | ++ (++ indicates inhibition at 50 μM or or less) |
| COc1ccc2nc(NC(=O)c3ccc([N+](=O)[O-])s3)sc2c1 [Compound 50, N-(6-methoxybenzo[d]thiazol-2-yl)-5-nitrothiophene-2-carboxamide] | −− (−− indicates marginal or no inhibition detected with this assay) |
| COc1ccc2nc(NC(=O)C3CCNCC3)sc2c1 [Compound 44, N-(6-methoxybenzo[d]thiazol-2-yl)piperidine-4-carboxamide] | −− (−− indicates marginal or no inhibition detected with this assay) |
| COc1ccc2nc(NC(=O)c3ccc(Cl)cc3)sc2n1 [Compound 155, 4-chloro-N-(5-methoxythiazolo[5,4-b]pyridin-2-yl)benzamide] | ++ (++ indicates inhibition at 50 μM or or less) |
| COc1ccc2nc(NC(=O)c3cccs3)sc2c1 [Compound 49, N-(6-methoxybenzo[d]thiazol-2-yl)thiophene-2-carboxamide] | ++ (++ indicates inhibition at 50 μM or or less) |
| COc1ccc(C(=O)Nc2nc3ccc(OC)cc3s2)cc1 [Compound 36, 4-methoxy-N-(6-methoxybenzo[d]thiazol-2-yl)benzamide] | ++ (++ indicates inhibition at 50 μM or or less) |
| COc1ccc2nc(NC(=O)c3cccc(F)c3)sc2n1 [Compound 141, 3-fluoro-N-(5-methoxythiazolo[5,4-b]pyridin-2-yl)benzamide] | ++ (++ indicates inhibition at 50 μM or or less) |
| CCCc1ccc(C(=O)Nc2nc3ccc(OC)cc3s2)cc1 [Compound 81, N-(6-methoxybenzo[d]thiazol-2-yl)-4-propylbenzamide] | ++ (++ indicates inhibition at 50 μM or or less) |

| Compound | UBC10 |
| --- | --- |
| Cc1ccc2nc(NC(=O)c3ccc(C)c(C)c3)sc2c1 [Compound 80, 3,4-dimethyl-N-(6-methylbenzo[d]thiazol-2-yl)benzamide] | −− (−− indicates marginal or no inhibition detected with this assay) |
| COc1ccc2nc(NC(=O)c3ccc(NC(C)=O)cc3)sc2c1 [Compound 17, 4-acetamido-N-(6-methoxybenzo[d]thiazol-2-yl)benzamide] | ++ (++ indicates inhibition at 50 μM or or less) |
| COc1ccc2nc(NC(=O)c3ccc(C(F)(F)F)cc3)sc2n1 [Compound 147, N-(5-methoxythiazolo[5,4-b]pyridin-2-yl)-4-(trifluoromethyl)benzamide] | −− (−− indicates marginal or no inhibition detected with this assay) |
| COc1ccc2nc(NC(=O)C(C)C)sc2c1 [Compound 47, N-(6-methoxybenzo[d]thiazol-2-yl)isobutyramide] | −− (−− indicates marginal or no inhibition detected with this assay) |
| COc1ccc2nc(NC(=O)c3ccccc3)sc2n1 [Compound 139, N-(5-methoxythiazolo[5,4-b]pyridin-2-yl)benzamide] | −− (−− indicates marginal or no inhibition detected with this assay) |
| CCOc1ccc2nc(NC(=O)c3ccc4c(c3)OCCO4)sc2c1 [Compound 90, N-(6-ethoxybenzo[d]thiazol-2-yl)-2,3-dihydrobenzo[b][1,4]dioxine-6-carboxamide] | ++ (++ indicates inhibition at 50 μM or or less) |
| COc1ccc2nc(NC(=O)c3ccc(F)c(F)c3)sc2n1 [Compound 146, 3,4-difluoro-N-(5-methoxythiazolo[5,4-b]pyridin-2-yl)benzamide] | ++ (++ indicates inhibition at 50 μM or or less) |
| COc1ccc2nc(NC(=O)c3cccc4ccccc34)sc2c1 [Compound 55, N-(6-methoxybenzo[d]thiazol-2-yl)-1-naphthamide] | −− (−− indicates marginal or no inhibition detected with this assay) |
| CCOc1ccc2nc(NC(=O)c3ccc(NC(C)=O)cc3)sc2c1 [Compound 94, 4-acetamido-N-(6-ethoxybenzo[d]thiazol-2-yl)benzamide] | −− (−− indicates marginal or no inhibition detected with this assay) |
| O=C(Nc1nc2ccccc2s1)c1ccccc1[N+](=O)[O-] [Compound 169, N-(benzo[d]thiazol-2-yl)-2-nitrobenzamide] | −− (−− indicates marginal or no inhibition detected with this assay) |
| O=C(Nc1nc2ccccc2s1)c1ccccc1Br [Compound 159, N-(benzo[d]thiazol-2-yl)-2-bromobenzamide] | ++ (++ indicates inhibition at 50 μM or or less) |
| CCc1ccc(C(=O)Nc2nc3ccccc3s2)cc1 [Compound 85, N-(benzo[d]thiazol-2-yl)-4-ethylbenzamide] | ++ (++ indicates inhibition at 50 μM or or less) |
| COc1ccc2nc(NC(=O)c3ccc(C#N)cc3)sc2c1 [Compound 31, 4-cyano-N-(6-methoxybenzo[d]thiazol-2-yl)benzamide] | ++ (++ indicates inhibition at 50 μM or or less) |
| COc1ccc2nc(NC(=O)c3ccc([N+](=O)[O-])cc3)sc2n1 [Compound 150, N-(5-methoxythiazolo[5,4-b]pyridin-2-yl)-4-nitrobenzamide] | ++ (++ indicates inhibition at 50 μM or or less) |
| O=C(Nc1nc2ccccc2s1)c1ccccc1 [Compound 168, N-(benzo[d]thiazol-2-yl)benzamide] | −− (−− indicates marginal or no inhibition detected with this assay) |
| Cc1ccc(C(=O)Nc2nc3ccc([N+](=O)[O-])cc3s2)cc1C [Compound 79, 3,4-dimethyl-N-(6-nitrobenzo[d]thiazol-2-yl)benzamide] | ++ (++ indicates inhibition at 50 μM or or less) |
